For data set [1], the system named is carrageenin edema. Description: Inhibitory activity on carrageenin edema. The conditions noted are these: rat, paw swelling volume three hours after carrageenin; for Inhibition rate (%): dose 50 mg/kg orally. Format: in vivo, Wistar male rats. Summed up:
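Male Wistar rats (about 100 g, 5 per group) dosed orally at 200, 100, 50 or 25 mg/kg as 2% Tween 80 suspension or aqueous salt solution, 1 h before subplantar injection of 0.1 ml 1% λ-carrageenin. Paw swelling measured at 3 h; % inhibition versus control group mean swelling.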

The test system of data set [2] is increased vascular permeability induced by acetic acid. Description: Inhibitory activity on increased vascular permeability induced by acetic acid (Mouse Whittle method, method C). The format is in vivo, ddy male mice. The conditions noted are these: dose 20 mg/kg orally, amount of leaked dye. The procedure: Using ddy male mice, each test group consisted of 4 or 5 mice. A test compound was mixed with Tween 80 [polyoxyethylenesorbitan monooleate (manufactured by Nacalai Tesque K.K.)], and distilled water was added thereto to obtain a 2% Tween 80 suspension, or it was dissolved in the form of a salt in water to obtain an aqueous solution. A test compound was orally administered, and upon expiration of one hour from the administration, 0.7% acetic acid was intraperitonially injected to each mouse in an amount of 0.1 ml/10 g, and at the same time, 2% brilliant blue was intravenously injected into the tail vein in an amount of 0.1 ml/20 g. Thirty minutes after the injection of brilliant blue, the cervical vertebrae were dislocated under anesthesia by chloroform, and the abdorminal cavity was washed with 5 ml of a physiological saline. The washing solution was subjected to centrifugal separation at 3,000 rpm for 10 minutes, and the amount of the dye in the supernatant was measured at 600 nm absorbance by Microplate ELISA Reader (Model 2550EIA Reader, manufactured by Bio-Rad Laboratories). The inhibition rate of the amount of leaked dye in the group in which a test compound was administered relative to the control group was obtained by the following formula. Inhibition rate (%) = (l -(C)/(D)) x 100 [formula] • C: Amount of leaked dye in the group to which a test compound was administered. • D: Amount of leaked dye in the control group.

For data set [3] the test system is unchanged. Description: Inhibitory activity on increased vascular permeability induced by acetic acid (Rat Whittle method, method D). Format: in vivo, SD (Crj: CD) male rats. Particulars: amount of leaked dye. The procedure: Using SD (Crj: CD) male rats, each test group consisted of from 3 to 5 rats. A test compound was mixed with Tween 80 [polyoxyethylenesorbitan monooleate (manufactured by Nacalai Tesque K.K.)], and distilled water was added thereto to obtain a 2% Tween 80 suspension, or it was dissolved in the form of a salt in water to obtain an aqueous solution. A test compound was orally administered, and one hour later, 0.7% acetic acid was intraperitonially injected to each rat in an amount of 0.05 ml/10 g, and at the same time, 2% brilliant blue was intravenously injected into the tail vein in an amount of 0.05 ml/20 g. Thirty minutes after the injection of brilliant blue, the cervical vertebrae were dislocated under anesthesia by chloroform, and the abdorminal cavity was washed with 10 ml of a physiological saline. The washing solution was subjected to centrifugal separation at 3,000 rpm for 10 minutes, and the amount of the dye in the supernatant was measured at 600 nm absorbance by Microplate ELISA Reader (Model 2550EIA Reader, manufactured by Bio-Rad Laboratories). The inhibition rate of the amount of leaked dye in the group to which a test compound was administered relative to the control group was obtained from the following formula, and the results are shown in Table 9. Inhibition rate (%) = (l -(C)/(D)) x 100 [formula] • C: Amount of leaked dye in the group to which a test compound was administered. • D: Amount of leaked dye in the control group.

The nature of data set [4]: Acute toxicity, intravenous injection (LD50). Format: in vivo. The conditions noted are these: mouse, in vivo, iv, ddy male mice, sodium salt, mortality over one week. The procedure:
Administration route: Intravenous injection
Using ddy male mice (body weight: 25 - 30 g), each test group consisted of 5 mice. A test compound was dissolved in the form of a sodium salt in a physiological saline or in a 5% glucose aqueous solution, and intravenously injected in an amount of 0.1 ml/10 g body weight. After the injection, the mortality rate was obtained over one week, and the median lethal dose LD50 (mg/kg) was determined.

Data set [5] concerns the target T1, Porcine pancreatic phospholipase A2 (Sus scrofa, UniProt P00592).
T1 construct: purchased Boehringer Mannheim·Yamanouchi K.K. 161454·122416
Description: Phospholipase A2 inhibitory activity, method B (L-α-dipalmitoylphosphatidylcholine substrate). Particulars: 1,000 ppm, 37°C for 30 minutes, read-out: % inhibition of PLA2 (1,000 ppm). Format: biochemical. Summed up:
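Substrate: L-α-dipalmitoylphosphatidylcholine/sodium cholate mixed micelles in 250 mM NaCl, 100 mM Tris-HCl pH 8.0. Enzyme (10 µg/ml stock) incubated with compound in buffer containing CaCl2 and BSA, 30 min at 37 °C. Released free fatty acid measured by ACS-ACOD at 540 nm; % inhibition derived from apparent enzyme concentration read off a standard curve.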

The subject of data set [6] is experimental acute pancreatitis model. Description: Effects against acute pancreatitis (Test Example 8, closed duodenal loop method, lesion scores). The format is in vivo, Crj-CD male rats. The conditions noted are these: sodium salt, 6 hours after ventrotomy; for inhibition in vivo at 10 mg/kg: Rattus norvegicus, 10 mg/kg single intravenous injection. In short, it runs like this:
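Closed duodenal loop pancreatitis in male Crj-CD rats (n=3) under halothane/nitrous oxide; sodium-salt compounds given i.v. into tail vein by continuous infusion or bolus, controls untreated. At 6 h, four pancreatic lesions scored 0-3; inhibition % of total and hemorrhagic scores calculated versus control.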

For data set [7], the target named is T1, Porcine pancreatic phospholipase A2. Description: Phospholipase A2 inhibitory activity, method A (egg yolk lecithin substrate). The format is biochemical. The conditions noted are these: 1,000 ppm, 37°C for 30 minutes, read-out: % inhibition of PLA2 (1,000 ppm). Summed up: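 Egg yolk lecithin dispersed with glycerine, Triton X-100 and CaCl2 in 50 mM Tris-HCl pH7.5 was hydrolysed by enzyme (20 ng/ml solution) with compound, 37°C, 30 min. Released free fatty acid measured by ACS-ACOD method at 540 nm; apparent enzyme level read from a standard curve to give percent inhibition.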

In data set [8] the test system is experimental acute pancreatitis model. Description: Effects against acute pancreatitis (Test Example 7, closed duodenal loop method, gross pathological examination). Format: in vivo, Crj-CD male rats. More on the design: key to Pancreatic edema Distribution: -: No significant lesions; ± ∼ +++: Focal-diffuse; ± ∼ +++: Focal-diffuse; ± ∼ +++: Focal-diffuse; ± ∼ +++: Focal-diffuse; key to Pancreatic hemorrhage Petechia Grade / Pancreatic edema Grade: -: No significant lesions; ±: Minimal; +: Light; ++: Moderate; +++: Marked. The conditions noted are these: 50 mg per kg continuous intravenous injection, examination 6 hours after ventrotomy, individual rats. The procedure: (§1) Using Crj-CD male rats (for Compound No. 19, rats having a body weight of from 371 to 484 g were used, and for Compound No. 10, rats having a body weight of from 444 to 574 g were used), each test group consisted of 3 rats. An experimental acute pancreatitis model was prepared by a closed duodenal loop method under anesthesia with halothane (manufactured by Hoechst Japan) and nitrous oxide (manufactured by Sumitomo Seika K.K.) applied by means of a general inhalation anesthesia machine (Model EM-2 and halothane evaporator F-Model). Then, Compound No. 19 or Compound No. 10 was continuously intravenously injected into the tail vein in an amount of 50 mg per kg or 40 mg per kg, respectively, at a rate of 0.05 ml per minute by means of a pump (Technicon AA II Proportioning Pump III, manufactured by Technicon Instruments Corporation). No injection was made to a control group. Gross pathological examination was conducted upon expiration of 6 hours after the ventrotomy in the case of the test group to which Compound No. 19 was administered, or upon expiration of 3 hours after the ventrotomy in the case of the test group to which Compound No. 10 was administered. As a result, as shown in the following Table 12, the groups to which the compounds of the present invention were administered, show distinct usefulness for treating acute pancreatitis.

For data set [9] the test system is unchanged. The data set is described as above. More on the design: key: -: No significant lesions; ±: Minimal; +: Light; ++: Moderate; +++: Marked. Format: in vivo, Crj-CD male rats. Particulars: 50 mg per kg continuous intravenous injection, examination 6 hours after ventrotomy, individual rats. The procedure:
as §1

[10] abbreviates: read-out: Inhibition rate of hemorrhagic lesions (%).
Where [11] appears, read: read-out: Inhibition rate of pancreatitis lesions (%).

Consider 5 compounds from EP0465913B1, “Diaminotrifluoromethylpyrimidine derivatives, process for their production and phospholipase A2 inhibitor containing them” (ISHIHARA SANGYO KAISHA, LTD., priority 1990, dated 1992).

Several values for one entry are separate records, joined by “and”; a condition that tells them apart may be missing. Identical values can stand only once. Like-named read-outs stand apart in the source and are kept apart here.

T1 sequence (P00592 23-146): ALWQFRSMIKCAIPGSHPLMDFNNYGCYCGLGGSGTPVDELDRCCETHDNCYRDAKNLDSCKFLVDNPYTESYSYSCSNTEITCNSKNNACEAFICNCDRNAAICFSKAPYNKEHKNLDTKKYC

`CCS(=O)(=O)Nc1ncc(C(F)(F)F)cc1NC(=O)c1ccco1` [compound 101]: the “Inhibition rate (%)” value in data set [1] is listed as 24%; in data set [2], 46%; in data set [3] (dose 50 mg/kg orally) it was 41%.
By LD50 is commonly meant the dose at which mortality reaches 50%. As a reminder, the inhibition is the change of the read-out against control, counted positive when it falls. For `CS(=O)(=O)Nc1ncc(C(F)(F)F)cc1NC(=O)c1cccc(C(F)(F)F)c1` [compound 80], the “Inhibition rate (%)” value in data set [1] was found to be 29%; in data set [3] (dose 25 mg/kg orally) it was 33%. Also, the LD50 at 168 h in data set [4] is more than 80 mg/kg. In addition, in data set [5], the inhibition at 1000 ppm is 73%. Also, the values for the inhibition in vivo at 10 mg/kg in data set [6] (setting [10]) and in data set [6] (setting [11]) were 11% and 8%, respectively.
As for `CCS(=O)(=O)Nc1ncc(C(F)(F)F)cc1NC(=O)C(F)(F)C(F)(F)F` [Compound No. 19, N-(2-ethylsulfonylamino-5-trifluoromethyl-3-pyridyl)pentafluoropropionamide], in data set [1] (po, 3 h, dose 100 mg/kg orally, read-out: Inhibition rate (%)), the inhibition in vivo at 100 mg/kg is 31%. For the same compound, the inhibition at 1000 ppm in [7] was more than 90%. Also, in [8], the “Pancreatic edema Distribution” value was “+ (2×) and ††”; the “Pancreatic edema Grade” value was “+ (2×) and ††”; the “Pancreatic hemorrhage Petechia Grade” value was “-”. Also, in data set [4], the LD50 at 168 h lay within 50 to 100 mg/kg. In data set [5], the inhibition at 1000 ppm worked out at 75%. In data set [9], the “Pancreatic hemorrhage Petechia Distribution” value was “-”.
Regarding `CS(=O)(=O)Nc1ncc(C(F)(F)F)cc1NC(=O)c1cccs1` [compound 120], the “Inhibition rate (%)” value in data set [1] was 27%; in data set [2], 43%; in [3] (dose 50 mg/kg orally), 35%. Also, the LD50 at 168 h in data set [4] turned out to be 83 mg/kg. For the same compound, the “Inhibition rate of hemorrhagic lesions (%)” value in data set [6] (24 mg/kg continuous intravenous injection) stood at 100%.
Turning to `CN(C)S(=O)(=O)Nc1ncc(C(F)(F)F)cc1NC(=O)c1cccc(F)c1` [compound 113], the figures for the “Inhibition rate (%)” value in data set [1] and in data set [3] (dose 50 mg/kg orally) were 26% and 67%, respectively. For the same compound, the inhibition at 1000 ppm in data set [5] amounted to 35%. For the same compound, the inhibition in vivo at 10 mg/kg in data set [6] (setting [10]) came to 41%; in data set [6] (setting [11]), 36%.
